This is an account of results in ChEMBL document CHEMBL1158488, “Investigation of the relative cellular permeability of DNA-binding pyrrole-imidazole polyamides” (J Med Chem, 2009).

One may read the EC50 as the concentration that produces a half-maximal response. One may read the IC50 as the concentration that inhibits the measured activity by half. High values mean weaker potency in that assay, low ones greater potency in that assay. The fold induction is the ratio of treated to control signal. Broadly, the Kd is the constant that tells how readily two partners part at equilibrium.

Data set [1] has as its system HeLa. The data set is described as follows: Cell permeability in human HeLa cells assessed as glucocorticoid receptor-dependent induction of luciferase activity after 40 hrs by GAL4-responsive luciferase reporter gene assay. Background: A reporter such as luciferase makes a cellular process visible.
The target in data set [2] is T1, Glucocorticoid receptor (Homo sapiens, UniProt P04150).
T1 sequence (P04150 whole entry): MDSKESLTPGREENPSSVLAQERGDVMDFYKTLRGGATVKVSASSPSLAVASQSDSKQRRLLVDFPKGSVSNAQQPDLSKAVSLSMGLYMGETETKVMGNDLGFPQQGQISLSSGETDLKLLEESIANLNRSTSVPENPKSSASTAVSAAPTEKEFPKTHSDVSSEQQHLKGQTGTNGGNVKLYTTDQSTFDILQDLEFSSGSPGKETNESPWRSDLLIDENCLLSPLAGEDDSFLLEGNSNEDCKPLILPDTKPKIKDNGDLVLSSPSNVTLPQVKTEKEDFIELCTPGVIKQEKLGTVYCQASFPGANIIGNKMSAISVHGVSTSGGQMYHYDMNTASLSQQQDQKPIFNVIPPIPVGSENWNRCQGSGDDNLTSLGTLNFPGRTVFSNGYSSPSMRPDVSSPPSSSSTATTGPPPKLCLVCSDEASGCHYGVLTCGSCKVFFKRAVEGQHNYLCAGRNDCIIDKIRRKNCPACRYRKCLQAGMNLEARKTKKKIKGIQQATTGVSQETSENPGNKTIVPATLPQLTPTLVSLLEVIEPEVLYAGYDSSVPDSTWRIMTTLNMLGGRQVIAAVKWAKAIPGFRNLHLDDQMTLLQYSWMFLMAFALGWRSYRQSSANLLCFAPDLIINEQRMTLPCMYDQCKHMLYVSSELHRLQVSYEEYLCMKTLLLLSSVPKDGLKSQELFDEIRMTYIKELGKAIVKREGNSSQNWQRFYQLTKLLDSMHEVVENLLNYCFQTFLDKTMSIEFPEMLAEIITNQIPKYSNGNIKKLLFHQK
Description: Displacement of fluormone from human recombinant glucocorticoid receptor ligand binding domain by fluorescence polarization assay

In data set [3] the test system is glucocorticoid receptor. Briefly: Cell permeability in human HeLa cells assessed as glucocorticoid receptor-dependent induction of luciferase activity at 6 uM after 40 hrs by GAL4-responsive luciferase reporter gene assay relative to control. To be noted: HeLa cells with GAL4-responsive luciferase reporter.
Data set [4] has as its system glucocorticoid receptor. Briefly: Cell permeability in human HeLa cells assessed as glucocorticoid receptor-dependent induction of luciferase activity at 0.6 uM after 40 hrs by GAL4-responsive luciferase reporter gene assay relative to control. To be noted: HeLa cells with GAL4-responsive luciferase reporter.
Data set [5] addresses Nucleic Acid.
Data set [6] concerns MCF7. The data set is described as follows: Cell permeability in human MCF7 cells assessed as glucocorticoid receptor-dependent induction of luciferase activity after 40 hrs by GAL4-responsive luciferase reporter gene assay. The settings on record: MCF7, 40 h.
The subject of data set [7] is glucocorticoid receptor. The data set is described as follows: Cell permeability in human MCF7 cells assessed as glucocorticoid receptor-dependent induction of luciferase activity at 1 uM after 40 hrs by GAL4-responsive luciferase reporter gene assay relative to control. To be noted: MCF7 cells with GAL4-responsive luciferase reporter.

Take `C[C@H]1C[C@@H]2[C@H]3CCC4=CC(=O)C=C[C@@]4(C)[C@]3(F)[C@H](O)C[C@@]2(C)[C@]1(O)C(=O)CSCCNC(=S)NCCNC(=O)c1cc(NC(=O)c2cncn2C)cn1C`: the EC50 in data set [1] amounted to 750 nM. The molecule further showed an IC50 in data set [2] of 5.7 nM.

Consider `C[C@@H]1C[C@H]2[C@@H]3CCC4=CC(=O)C=C[C@]4(C)[C@@]3(F)[C@@H](O)C[C@]2(C)[C@@]1(O)C(=O)CSCCNC(=S)NCCCN(C)CCCNC(=O)CCNC(=O)c1cc(NC(=O)c2cc(NC(=O)c3nccn3C)cn2C)cn1C`, for which, in data set [2], the midpoint of inhibition, the IC50, lay at 12 nM.

Take `C[C@H]1C[C@@H]2[C@H]3CCC4=CC(=O)C=C[C@@]4(C)[C@]3(F)[C@H](O)C[C@@]2(C)[C@]1(O)C(=O)CSCCNC(=S)NCCNC(=O)c1cc(NC(=O)c2cc(NC(=O)c3cc(NC(=O)c4nccn4C)cn3C)cn2C)cn1C`: in data set [2], the half-maximal inhibitory concentration (IC50) was determined as 26 nM. For `C[C@@H]1C[C@H]2[C@@H]3CCC4=CC(=O)C=C[C@]4(C)[C@@]3(F)[C@@H](O)C[C@]2(C)[C@@]1(O)C(=O)CSCCNC(=S)NCCCN(C)CCCNC(=O)CCNC(=O)c1cc(NC(=O)c2nccn2C)cn1C`, the concentration for half-maximal inhibition (IC50) in data set [2] was 8.5 nM. On the same count and under the same terms, the result for `C[C@H]1C[C@@H]2[C@H]3CCC4=CC(=O)C=C[C@@]4(C)[C@]3(F)[C@H](O)C[C@@]2(C)[C@]1(O)C(=O)CSCCNC(=S)NCCNC(=O)c1cc(NC(=O)c2cc(NC(=O)c3cc(NC(=O)c4cc(NC(=O)CCCNC(=O)c5nccn5C)cn4C)cn3C)cn2C)cn1C` reads 23 nM. As for `C[C@H]1C[C@@H]2[C@H]3CCC4=CC(=O)C=C[C@@]4(C)[C@]3(F)[C@H](O)C[C@@]2(C)[C@]1(O)C(=O)CSCCNC(=S)NCCNC(=O)c1cc(NC(=O)c2cc(NC(=O)c3nccn3C)cn2C)cn1C`, the EC50 in data set [1] was 1200 nM. The fold induction at 40 h, 6 µM in data set [3] came out at 3400. Besides, in data set [2], the IC50 was found to be 14 nM.

In turn, `C[C@H]1C[C@@H]2[C@H]3CCC4=CC(=O)C=C[C@@]4(C)[C@]3(F)[C@H](O)C[C@@]2(C)[C@]1(O)C(=O)CSCCNC(=S)NCCNC(=O)c1cc(NC(=O)c2cc(NC(=O)c3cc(NC(=O)c4cc(NC(=O)c5nccn5C)cn4C)cn3C)cn2C)cn1C` yielded an IC50 in data set [2] of 34 nM. With `C[C@H]1C[C@@H]2[C@H]3CCC4=CC(=O)C=C[C@@]4(C)[C@]3(F)[C@H](O)C[C@@]2(C)[C@]1(O)C(=O)CSCCNC(=S)NCCNC(=O)c1cc(NC(=O)c2cc(NC(=O)c3cc(NC(=O)c4cc(NC(=O)CCCNC(=O)c5cc(NC(=O)c6nccn6C)cn5C)cn4C)cn3C)cn2C)cn1C`, half-maximal inhibition in data set [2] (IC50) was put at 21 nM. On the same count and under the same terms, the result for `C[C@@H]1C[C@H]2[C@@H]3CCC4=CC(=O)C=C[C@]4(C)[C@@]3(F)[C@@H](O)C[C@]2(C)[C@@]1(O)C(=O)CSCCNC(=S)NCCCN(C)CCCNC(=O)CCNC(=O)c1cc(NC(=O)c2cc(NC(=O)c3cc(NC(=O)c4cc(NC(=O)CCCNC(=O)c5cc(NC(=O)c6nccn6C)cn5C)cn4C)cn3C)cn2C)cn1C` reads 22 nM; that for `C[C@H]1C[C@@H]2[C@H]3CCC4=CC(=O)C=C[C@@]4(C)[C@]3(F)[C@H](O)C[C@@]2(C)[C@]1(O)C(=O)CSCCNC(=S)NCCNC(=O)c1cc(NC(=O)c2cc(NC(=O)c3cc(NC(=O)c4cc(NC(=O)CCCNC(=O)c5cc(NC(=O)c6cc(NC(=O)c7nccn7C)cn6C)cn5C)cn4C)cn3C)cn2C)cn1C`, 21 nM. `CC(=O)NCCNC(=S)NCCSCC(=O)[C@@]1(O)[C@H](C)C[C@H]2[C@@H]3CCC4=CC(=O)C=C[C@]4(C)[C@@]3(F)[C@@H](O)C[C@@]21C`: the EC50 in data set [1] stood at 290 nM. The fold induction at 40 h, 0.6 µM in data set [4] was found to be 3600. Further, in data set [2], inhibition was half-maximal at 9.8 nM (IC50). In turn, `C[C@@H]1C[C@H]2[C@@H]3CCC4=CC(=O)C=C[C@]4(C)[C@@]3(F)[C@@H](O)C[C@]2(C)[C@@]1(O)C(=O)CSCCNC(=S)NCCCN(C)CCCNC(=O)CCNC(=O)c1cc(NC(=O)c2cc(NC(=O)c3cc(NC(=O)c4cc(NC(=O)c5nccn5C)cn4C)cn3C)cn2C)cn1C` gave an IC50 in data set [2] of 16 nM. Same read-out and setting: in the case of `C[C@H]1C[C@@H]2[C@H]3CCC4=CC(=O)C=C[C@@]4(C)[C@]3(F)[C@H](O)C[C@@]2(C)[C@]1(O)C(=O)NCCNC(=O)c1cc(NC(=O)c2cc(NC(=O)c3cc(NC(=O)c4nccn4C)cn3C)cn2C)cn1C` it was 550 nM. With `C[C@H]1C[C@@H]2[C@H]3CCC4=CC(=O)C=C[C@@]4(C)[C@]3(F)[C@H](O)C[C@@]2(C)[C@]1(O)C(=O)NCCNC(=O)c1cc(NC(=O)c2nccn2C)cn1C`, the EC50 in data set [1] turned out to be 4200 nM. Moreover, it took 460 nM to reach half-maximal inhibition in data set [2] (IC50). In turn, `C[C@@H]1C[C@H]2[C@@H]3CCC4=CC(=O)C=C[C@]4(C)[C@@]3(F)[C@@H](O)C[C@]2(C)[C@@]1(O)C(=O)CSCCNC(=S)NCCCN(C)CCCNC(=O)CCNC(=O)c1cc(NC(=O)c2cc(NC(=O)c3cc(NC(=O)c4cc(NC(=O)CCCNC(=O)c5cc(NC(=O)c6cc(NC(=O)c7cc(NC(=O)c8nccn8C)cn7C)cn6C)cn5C)cn4C)cn3C)cn2C)cn1C` returned a Kd in data set [5] of 5 nM. In turn, `C[C@H]1C[C@@H]2[C@H]3CCC4=CC(=O)C=C[C@@]4(C)[C@]3(F)[C@H](O)C[C@@]2(C)[C@]1(O)C(=O)NCCNC(=O)c1cc(NC(=O)c2cc(NC(=O)c3cc(NC(=O)c4cc(NC(=O)CCCNC(=O)c5cc(NC(=O)c6cc(NC(=O)c7cc(NC(=O)c8nccn8C)cn7C)cn6C)cn5C)cn4C)cn3C)cn2C)cn1C` gave an IC50 in data set [2] of 840 nM. The molecule `C[C@@H]1C[C@H]2[C@@H]3CCC4=CC(=O)C=C[C@]4(C)[C@@]3(F)[C@@H](O)C[C@]2(C)[C@@]1(O)C(=O)CSCCNC(=S)NCCCN(C)CCCNC(=O)CCNC(=O)c1cc(NC(=O)c2cc(NC(=O)c3cc(NC(=O)c4cc(NC(=O)CCCNC(=O)c5nccn5C)cn4C)cn3C)cn2C)cn1C` gave an IC50 in data set [2] of 16 nM. Same read-out and setting: in the case of `C[C@@H]1C[C@H]2[C@@H]3CCC4=CC(=O)C=C[C@]4(C)[C@@]3(F)[C@@H](O)C[C@]2(C)[C@@]1(O)C(=O)CSCCNC(=S)NCCCN(C)CCCNC(=O)CCNC(=O)c1cc(NC(=O)c2cc(NC(=O)c3cc(NC(=O)c4nccn4C)cn3C)cn2C)cn1C` it was 20 nM; in that of `C[C@@H]1C[C@H]2[C@@H]3CCC4=CC(=O)C=C[C@]4(C)[C@@]3(F)[C@@H](O)C[C@]2(C)[C@@]1(O)C(=O)CSCCNC(=S)NCCCN(C)CCCNC(=O)CCNC(=O)c1cc(NC(=O)c2cc(NC(=O)c3cc(NC(=O)c4cc(NC(=O)CCCNC(=O)c5cc(NC(=O)c6cc(NC(=O)c7nccn7C)cn6C)cn5C)cn4C)cn3C)cn2C)cn1C`, 20 nM. For `CC(=O)NCCC(=O)NCCCN(C)CCCNC(=S)NCCSCC(=O)[C@@]1(O)[C@H](C)C[C@H]2[C@@H]3CCC4=CC(=O)C=C[C@]4(C)[C@@]3(F)[C@@H](O)C[C@@]21C`, the fold induction at 40 h, 6 µM in data set [3] was 600. In addition, in data set [6], the EC50 stood at 250 nM. The fold induction at 40 h, 1 µM in data set [7] amounted to 1200. The midpoint of inhibition in data set [2], the IC50, lay at 9.3 nM. For `C[C@H]1C[C@@H]2[C@H]3CCC4=CC(=O)C=C[C@@]4(C)[C@]3(F)[C@H](O)C[C@@]2(C)[C@]1(O)C(=O)CSCCNC(=S)NCCNC(=O)c1cc(NC(=O)c2cc(NC(=O)c3cc(NC(=O)c4cc(NC(=O)CCCNC(=O)c5cc(NC(=O)c6cc(NC(=O)c7cc(NC(=O)c8nccn8C)cn7C)cn6C)cn5C)cn4C)cn3C)cn2C)cn1C`, the fold induction at 40 h, 6 µM in data set [3] was found to be 1500. In addition, the IC50 in data set [2] is 27 nM. For the molecule `C[C@@H]1C[C@H]2[C@@H]3CCC4=CC(=O)C=C[C@]4(C)[C@@]3(F)[C@@H](O)C[C@]2(C)[C@@]1(O)C(N)=O` [OXDEX], the EC50 in data set [1] is 35000 nM.
